Data from patent US20110098314A1, “STATINS FOR THE TREATMENT OF OCULAR HYPERTENSION AND GLAUCOMA” (ALCON, INC., priority 2005, published 2011).

What was measured:
intraocular pressure [1] = experiment: Acute IOP response in lasered (hypertensive) eyes of conscious cynomolgus monkeys; format: in vivo, cynomolgus monkey; details: single topical ocular application of 300 μg; IOP at 1, 3 and 6 hours
Protocol: Acute IOP Response in Lasered (Hypertensive) Eyes of Conscious Cynomolgus Monkeys.
Intraocular pressure (IOP) was determined with an Alcon Pneumatonometer after light corneal anesthesia with 0.1% proparacaine. Eyes were washed with saline after each measurement. After a baseline IOP measurement, the test compound was instilled in one 30 μL aliquot to the right eyes only of nine cynomolgus monkeys. The vehicle was instilled in the right eyes of six additional animals. Subsequent IOP measurements were taken at 1, 3, and 6 hours.

[2] = Penetration of the cornea following topical ocular administration; format: in vivo
Text: The use of topical ocular administration is therefore strongly preferred in the present invention.

[3] = test system: CTGF gene expression in cultured human trabecular meshwork (TM) cells; experiment: Inhibition of TGFβ2 stimulated CTGF gene expression (QPCR, CTGF/18S cDNA); format: cell-based
Protocol: FIGS. 1-3 are graphs setting forth the effects of statins on basal and TGFβ2-induced CTGF gene expression in cultured human trabecular meshwork cells.
The effectiveness of statins on CTGF gene expression in cultured human trabecular meshwork (TM) cells was studied. In these experiments, the CTGF/18S cDNA levels were measured by quantitative reverse-transcription PCR (QPCR) and compared.

[4] = test system: fibronectin secretion by GTM-3 cells; experiment: Inhibition of TM fibronectin secretion (ELISA of cell supernatants); format: cell-based, human; details: 24 h, FIG. 5
Protocol: (§1) FIG. 5 depicts bar graphs showing the effect of lovastatin on GTM-3 cell fibronectin secretion and viability. Transformed human trabecular meshwork (GTM-3) cells were incubated in the presence or absence of test agents in serum-free DMEM media for 24 h (37° C., 5% CO2). Cell supernatants were then assayed for fibronectin content by ELISA and cell monolayers were assayed for viability by neutral red uptake.
(§2) The effect of lovastatin on both basal (vehicle) and stimulated (TGF32) GTM-3 (a transformed human TM cell strain) secretion of fibronectin was tested. GTM-3 cells were incubated in the presence or absence of test agents in serum-free media for 24 h (37° C., 5% CO2), then changes in secreted fibronectin levels were determined by ELISA of cell supernatants. Neutral red uptake assays were performed on the remaining cell monolayers, in order to determine the effect of test agents on GTM-3 cell viability. […] Thus, by virtue of the ability to reduce the excessive accumulation of extracellular matrix (e.g. fibronectin), statins are useful in the treatment of glaucoma and to control or lower IOP.

GTM-3 cells = experiment: GTM-3 cell viability (neutral red uptake); format: cell-based, human; details: 24 h, FIG. 5
Protocol: as §1, §2

intraocular pressure [5] = experiment: IOP response in lasered (hypertensive) eyes of conscious cynomolgus monkeys following repeated dosing; format: in vivo, cynomolgus monkey
Protocol: Response in Lasered (Hypertensive) Eyes of Conscious Cynomolgus Monkeys Following Repeated Dosing.
In a further study, the intraocular pressure-lowering efficacy of lovastatin was measured in conscious ocular hypertensive monkeys using a five-dose, three-day study design. The test item was administered in one 30 μL aliquot to the lasered (unilateral laser trabeculoplasty) eye of eight animals. The vehicle was instilled in the lasered eyes of six additional animals as a control. Doses 1, 3, and 5 were instilled at 0900 hours on three consecutive days; doses 2 and 4 at 1630 hours on days 1 and 2. IOP was measured at 1, 3 and 6 hours after doses 1 and 5. IOP was also measured at 16 hours after dose 4. The percent change from time 0 baseline was determined for each animal for every IOP measurement.
There was an average reduction in IOP of 12.5% in the control group. In a subsequent study, wherein nine doses of lovastatin were administered over a five day period, IOP was reduced by up to 7.4%.

intraocular pressure [6] = details: administered orally for at least one year; cited from earlier work
[7] = 1 hour after fifth topical ocular instillation of 300 μg
[8] = 3 hours after fifth topical ocular instillation of 300 μg
[9] = 6 hours after fifth topical ocular instillation of 300 μg

Row | Compound | IOP lowering after single topical ocular application (intraocular pressure [1]) | ability to reach intraocular tissues via penetration of the cornea [2] | CTGF gene expression by cultured human TM cells [3] | change in intraocular pressure in patients (intraocular pressure [6]) | further results
1 | CC(C)c1c(C(=O)Nc2ccccc2)c(-c2ccccc2)c(-c2ccc(F)cc2)n1CC[C@@H](O)C[C@@H](O)CC(=O)O (relative stereo) [atorvastatin, (βR,δR)-2-(4-fluorophenyl)-β,δ-dihydroxy-5-(1-methylethyl)-3-phenyl-4-[(phenylamino)carbonyl]-1H-Pyrrole-1-heptanoic acid] | did not significantly lower IOP | do not readily penetrate the cornea |  |  | 
2 | CC(C)n1c(/C=C/[C@@H](O)C[C@@H](O)CC(=O)O)c(-c2ccc(F)cc2)c2ccccc21 (relative stereo) [fluvastatin, (3R,5S,6E)-rel-7-[3-(4-fluorophenyl)-1-(1-methylethyl)-1H-indol-2-yl]-3,5-dihydroxy-6-heptenoic acid] | did not significantly lower IOP |  |  |  | 
3 | CC[C@H](C)C(=O)O[C@H]1C[C@H](O)C=C2C=C[C@H](C)[C@H](CC[C@@H](O)CC(O)CC(=O)O)[C@H]21 (stereo in doubt) [pravastatin, (βR,δR,1S,2S,6S,8S,8aR)-1,2,6,7,8,8a-hexahydro-β,δ,6-trihydroxy-2-methyl-8-[(2S)-2-methyl-1-oxobutoxy]-1-naphthaleneheptanoic acid] | did not significantly lower IOP | able to reach intraocular tissues via penetration of the cornea |  |  | 
4 | CC[C@H](C)C(=O)O[C@H]1C[C@@H](C)C=C2C=C[C@H](C)[C@H](CC[C@@H]3C[C@@H](O)CC(=O)O3)[C@H]21 [lovastatin, 2(S)-2-methyl-butanoic acid (1S,3R,7S,8S,8aR)-1,2,3,7,8,8a-hexahydro-3,7-dimethyl-8-[2-[(2R,4R)-tetrahydro-4-hydroxy-6-oxo-2H-pyran-2-yl]ethyl]-1-naphthalenyl ester] | did not significantly lower IOP |  | significantly reduce | no clinically significant change in intraocular pressure | IC50 ([3]; dose-dependent, FIG. 3): 75 nM; TGFβ2-stimulated fibronectin secretion ([4]; serum-free media): suppressed; basal fibronectin secretion ([4]; vehicle (basal)): suppression; GTM-3 cell viability (GTM-3 cells): without affecting cell viability; average IOP lowering (intraocular pressure [5]; [7]): 8.3 mmHg; average IOP lowering, percent change from baseline (intraocular pressure [5]; [7]): 22.8%; average IOP lowering (intraocular pressure [5]; [8]): 8.1 mmHg; average IOP lowering, percent change from baseline (intraocular pressure [5]; [8]): 21.5%; average IOP lowering (intraocular pressure [5]; [9]): 9.5 mmHg; average IOP lowering, percent change from baseline (intraocular pressure [5]; [9]): 25.5%; IOP reduction (intraocular pressure [5]; subsequent study, nine doses over a five day period): up to 7.4%
5 | CC[C@H](C)C(=O)O[C@H]1CCC=C2C=C[C@H](C)[C@H](CC[C@@H]3C[C@@H](O)CC(=O)O3)[C@H]21 [mevastatin, (2S)-2-methyl butanoic acid (1S,7S,8S,8aR)-1,2,3,7,8,8a-hexahydro-7-methyl-8-[2-[(2R,4R)-tetrahydro-4-hydroxy-6-oxo-2H-pyran-2-yl]ethyl]-1-naphthalenyl ester] |  |  | significantly reduce |  | 
6 | CCC(C)(C)C(=O)O[C@H]1C[C@@H](C)C=C2C=C[C@H](C)[C@H](CC[C@@H]3C[C@@H](O)CC(=O)O3)[C@H]21 [simvastatin, 2,2-dimethyl-butanoic acid (1S,3R,7S,8S,8aR)-1,2,3,7,8,8a-hexahydro-3,7-dimethyl-8-[2-[(2R,4R)-tetrahydro-4-hydroxy-6-oxo-2H-pyran-2-yl]ethyl]-1-naphthalenyl ester] |  |  | significantly reduce | no clinically significant change in intraocular pressure | 
